Experiment: mn = molality of the nth substance listed, in mol/kg
Settings: 101 kPa, Liquid; for speed of sound: Pulse-echo method

O=C([O-])CC(O)(CC(=O)[O-])C(=O)O.[Na+].[Na+] [disodium hydrogen citrate] + O
mass density [kg/m3]
Settings | 288.15 K | 293.15 K | 298.15 K | 303.15 K | 308.15 K
m1 = 0.0095 | 1000.55 | 999.632 | 998.455 | 997.044 | 995.414
m1 = 0.0114 | 1000.84 | 999.92 | 998.74 | 997.324 | 995.691
m1 = 0.0133 | 1001.13 | 1000.21 | 999.021 | 997.605 | 995.97
m1 = 0.015 | 1001.38 | 1000.46 | 999.268 | 997.849 | 996.213
m1 = 0.0172 | 1001.71 | 1000.78 | 999.588 | 998.164 | 996.524
m1 = 0.0187 | 1001.93 | 1000.99 | 999.8 | 998.374 | 996.735
m1 = 0.021 | 1002.28 | 1001.35 | 1000.15 | 998.719 | 997.077
m1 = 0.0229 | 1002.56 | 1001.62 | 1000.42 | 998.99 | 997.344
m1 = 0.0267 | 1003.12 | 1002.18 | 1000.97 | 999.532 | 997.881
m1 = 0.0307 | 1003.73 | 1002.77 | 1001.56 | 1000.12 | 998.461
m1 = 0.0344 | 1004.28 | 1003.32 | 1002.1 | 1000.65 | 998.99
m1 = 0.0374 | 1004.73 | 1003.76 | 1002.54 | 1001.09 | 999.421
m1 = 0.057 | 1007.64 | 1006.63 | 1005.38 | 1003.9 | 1002.21
m1 = 0.0771 | 1010.58 | 1009.54 | 1008.25 | 1006.75 | 1005.03
m1 = 0.0953 | 1013.22 | 1012.15 | 1010.84 | 1009.31 | 1007.58
m1 = 0.1157 | 1016.16 | 1015.05 | 1013.71 | 1012.16 | 1010.4
m1 = 0.1332 | 1018.67 | 1017.54 | 1016.17 | 1014.59 | 1012.82
m1 = 0.1542 | 1021.64 | 1020.48 | 1019.09 | 1017.48 | 1015.68
m1 = 0.1773 | 1024.9 | 1023.7 | 1022.26 | 1020.63 | 1018.81
m1 = 0.1964 | 1027.57 | 1026.33 | 1024.88 | 1023.22 | 1021.38
m1 = 0.2144 | 1030.07 | 1028.81 | 1027.33 | 1025.66 | 1023.8
m1 = 0.2229 | 1031.25 | 1029.97 | 1028.48 | 1026.8 | 1024.93
m1 = 0.2509 | 1035.09 | 1033.78 | 1032.26 | 1030.54 | 1028.64
m1 = 0.283 | 1039.47 | 1038.11 | 1036.55 | 1034.8 | 1032.87
m1 = 0.2965 | 1041.3 | 1039.92 | 1038.34 | 1036.58 | 1034.63
m1 = 0.3375 | 1046.82 | 1045.39 | 1043.77 | 1041.96 | 1039.98

O=C([O-])CC(O)(CC(=O)O)C(=O)O.[Na+] [sodium dihydrogen citrate] + O
Settings | mass density, 288.15 K [kg/m3] | mass density, 293.15 K [kg/m3] | mass density, 298.15 K [kg/m3] | mass density, 303.15 K [kg/m3] | mass density, 308.15 K [kg/m3] | speed of sound, 288.15 K [m/s] | speed of sound, 293.15 K [m/s] | speed of sound, 298.15 K [m/s] | speed of sound, 303.15 K [m/s] | speed of sound, 308.15 K [m/s]
m1 = 0.0093 | 1000.17 | 999.26 | 998.086 | 996.675 | 995.048 | 1467.7 | 1483.7 | 1497.9 | 1510.2 | 1520.8
m1 = 0.0117 | 1000.44 | 999.519 | 998.341 | 996.93 | 995.3 | 1467.9 | 1483.9 | 1498.1 | 1510.4 | 1521
m1 = 0.0125 | 1000.53 | 999.616 | 998.436 | 997.022 | 995.39 | 1468 | 1484 | 1498.2 | 1510.5 | 1521.1
m1 = 0.0138 | 1000.68 | 999.756 | 998.576 | 997.161 | 995.527 | 1468.1 | 1484.1 | 1498.3 | 1510.6 | 1521.2
m1 = 0.0155 | 1000.87 | 999.956 | 998.772 | 997.353 | 995.72 | 1468.3 | 1484.3 | 1498.5 | 1510.8 | 1521.4
m1 = 0.0163 | 1000.97 | 1000.04 | 998.856 | 997.436 | 995.802 | 1468.4 | 1484.4 | 1498.5 | 1510.8 | 1521.4
m1 = 0.0187 | 1001.24 | 1000.31 | 999.125 | 997.702 | 996.063 | 1468.7 | 1484.7 | 1498.8 | 1511 | 1521.6
m1 = 0.0202 | 1001.42 | 1000.49 | 999.296 | 997.872 | 996.232 | 1468.9 | 1484.8 | 1498.9 | 1511.2 | 1521.8
m1 = 0.0209 | 1001.49 | 1000.56 | 999.364 | 997.94 | 996.299 | 1468.9 | 1484.9 | 1499 | 1511.3 | 1521.8
m1 = 0.024 | 1001.85 | 1000.91 | 999.72 | 998.29 | 996.648 | 1469.3 | 1485.2 | 1499.3 | 1511.5 | 1522.1
m1 = 0.0279 | 1002.29 | 1001.35 | 1000.15 | 998.715 | 997.067 | 1469.8 | 1485.6 | 1499.7 | 1511.9 | 1522.4
m1 = 0.0327 | 1002.84 | 1001.89 | 1000.68 | 999.246 | 997.594 | 1470.2 | 1486 | 1500.1 | 1512.3 | 1522.8
m1 = 0.0376 | 1003.39 | 1002.44 | 1001.22 | 999.776 | 998.119 | 1470.8 | 1486.6 | 1500.6 | 1512.7 | 1523.2
m1 = 0.0409 | 1003.78 | 1002.82 | 1001.6 | 1000.15 | 998.486 | 1471.1 | 1486.9 | 1500.9 | 1513.1 | 1523.5
m1 = 0.047 | 1004.47 | 1003.49 | 1002.27 | 1000.81 | 999.141 | 1471.8 | 1487.6 | 1501.5 | 1513.6 | 1524
m1 = 0.0681 | 1006.85 | 1005.84 | 1004.59 | 1003.11 | 1001.41 | 1474 | 1489.7 | 1503.5 | 1515.5 | 1525.8
m1 = 0.0937 | 1009.71 | 1008.67 | 1007.38 | 1005.86 | 1004.15 | 1476.8 | 1492.3 | 1505.9 | 1517.8 | 1527.9
m1 = 0.1194 | 1012.55 | 1011.47 | 1010.14 | 1008.6 | 1006.86 | 1479.5 | 1494.8 | 1508.3 | 1520 | 1530.1
m1 = 0.144 | 1015.25 | 1014.13 | 1012.77 | 1011.2 | 1009.44 | 1482 | 1497.2 | 1510.5 | 1522.1 | 1532
m1 = 0.1678 | 1017.83 | 1016.68 | 1015.29 | 1013.7 | 1011.91 | 1484.6 | 1499.6 | 1512.7 | 1524.2 | 1534
m1 = 0.1911 | 1020.35 | 1019.17 | 1017.76 | 1016.13 | 1014.32 | 1487 | 1501.8 | 1514.9 | 1526.2 | 1535.8
m1 = 0.2165 | 1023.07 | 1021.86 | 1020.42 | 1018.77 | 1016.93 | 1489.5 | 1504.1 | 1517 | 1528.2 | 1537.8
m1 = 0.2412 | 1025.7 | 1024.45 | 1022.98 | 1021.31 | 1019.45 | 1492 | 1506.5 | 1519.3 | 1530.3 | 1539.8
m1 = 0.2934 | 1031.2 | 1029.89 | 1028.36 | 1026.63 | 1024.72 | 1497.3 | 1511.5 | 1524 | 1534.7 | 1543.9
m1 = 0.3205 | 1034.04 | 1032.69 | 1031.13 | 1029.38 | 1027.44 | 1500 | 1514 | 1526.3 | 1537 | 1546
m1 = 0.3395 | 1036.01 | 1034.64 | 1033.06 | 1031.28 | 1029.33 | 1501.8 | 1515.8 | 1528 | 1538.5 | 1547.5
m1 = 0.3728 | 1039.43 | 1038.03 | 1036.41 | 1034.6 | 1032.62 | 1505.1 | 1518.8 | 1530.9 | 1541.2 | 1550
m1 = 0.3936 | 1041.57 | 1040.14 | 1038.5 | 1036.67 | 1034.67 | 1507.1 | 1520.7 | 1532.7 | 1542.9 | 1551.6

From the NIST ThermoML archive (doi:10.1021/je100864e)
